The values below come from patent EP2545917B1, “NOVEL EP4 AGONIST” (Kaken Pharmaceutical Co., Ltd., priority 2010, dated 2011).

The test system of one series is IL-2. As to the kind of experiment: Suppressive effect on cytokine production, CD4 positive T cells stimulated with anti-CD3 and anti-CD28 antibody, ELISA. As to conditions: human CD4 positive T cells, anti-CD3/anti-CD28, 24 hr; geometric mean of three volunteers. It counts as cell-based. As to the method:
(§1) Blood was collected from 3 healthy volunteers, and CD4 positive T cells were prepared. […] In both cases, the test compound was added 30 min before stimulation.
On the technique in general: In an ELISA, binding on a coated surface is turned into a signal by an enzyme label.

For another series, the system named is TNF-α. The series is described as above. Conditions: human CD4 positive T cells, anti-CD3/anti-CD28, 24 hr; geometric mean of three volunteers. It counts as cell-based. As to the method: as §1
Another series relates to eye. As to the kind of experiment: Local irritative effect on the eye in rabbits. In kind it is in vivo, Japanese white rabbits. Conditions: single instillation, left eye. As to the method:
Japanese white rabbits (male, 10 weeks old, BIOTEC Co., Ltd.) were purchased, acclimated for 1 week and used for the study. Compound F solution (0.01 w/v%) was instilled once into the cornea of both eyes at a volume of 50 µL/eye with a micropipette. The intraocular pressure of the right eye was measured and the local irritative effect on the eye was evaluated using the left eye. After surface anesthesia with oxybupranol (Benoxil 0.4% instillation solution), the intraocular pressure was measured before ocular instillation ) and 1, 2, 3, 4, 6 and 8 hr after the instillation using a pneumatonometer (Alcon Ltd.). In addition, the local irritative effect on the eye was evaluated by scoring conjunctival congestion, conjunctival edema, cornea opacity, iris congestion, excretion and eye closure performance. For the evaluation, phosphate buffer was used for the solvent control group, and isopropyl unoprostone (Rescula eye drops, Santen Pharmaceutical Co., Ltd.) was used for comparison. Six animals were used for each group and the results were expressed as average.

The next series deals with IP-10. As to the kind of experiment: Suppressive effect on cytokine production, whole blood stimulated with lipopolysaccharide, ELISA. It counts as cell-based. Conditions: human whole blood, indometacin, 48 hr, geometric mean of three volunteers.
The target of a further series is T1, Human EP2 (Homo sapiens, UniProt P43116).
T1 construct: expressed in transfected cells; host or cells: COS-7
T1 sequence (P43116 whole entry): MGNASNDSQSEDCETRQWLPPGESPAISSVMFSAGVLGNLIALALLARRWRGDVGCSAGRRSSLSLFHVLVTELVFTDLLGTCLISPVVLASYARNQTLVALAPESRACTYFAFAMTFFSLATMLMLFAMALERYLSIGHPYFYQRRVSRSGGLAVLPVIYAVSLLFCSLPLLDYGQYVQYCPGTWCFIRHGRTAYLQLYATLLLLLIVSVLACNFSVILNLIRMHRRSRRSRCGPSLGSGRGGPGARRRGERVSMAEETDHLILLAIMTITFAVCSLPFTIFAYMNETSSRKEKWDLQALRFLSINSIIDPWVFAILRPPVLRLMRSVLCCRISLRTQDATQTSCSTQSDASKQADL
As to the kind of experiment: Receptor affinity, tritium-labeled PGE2 binding to membranes of transfected COS-7 cells. As to the method:
(§2) PG receptor affinity of compound F and compound J of the present invention was evaluated. Compound F used was one synthesized in Example 9, and compound J was prepared by separating and purifying the compound synthesized in Example 14 with a column (the same preparations were used in the following Examples). COS-7 cells were transfected with the genes of mouse EP4, human EP1-4 or human IP to overexpress the receptor and then the cell membranes were collected. […] The dissociation constant Kd value was obtained and inhibition constant Ki value of each test compound was determined in a conventional method.

In a further series the target is T2, Mouse EP4 (Mus musculus, UniProt P32240).
T2 construct: expressed in transfected cells; host or cells: COS-7
T2 sequence (P32240 whole entry): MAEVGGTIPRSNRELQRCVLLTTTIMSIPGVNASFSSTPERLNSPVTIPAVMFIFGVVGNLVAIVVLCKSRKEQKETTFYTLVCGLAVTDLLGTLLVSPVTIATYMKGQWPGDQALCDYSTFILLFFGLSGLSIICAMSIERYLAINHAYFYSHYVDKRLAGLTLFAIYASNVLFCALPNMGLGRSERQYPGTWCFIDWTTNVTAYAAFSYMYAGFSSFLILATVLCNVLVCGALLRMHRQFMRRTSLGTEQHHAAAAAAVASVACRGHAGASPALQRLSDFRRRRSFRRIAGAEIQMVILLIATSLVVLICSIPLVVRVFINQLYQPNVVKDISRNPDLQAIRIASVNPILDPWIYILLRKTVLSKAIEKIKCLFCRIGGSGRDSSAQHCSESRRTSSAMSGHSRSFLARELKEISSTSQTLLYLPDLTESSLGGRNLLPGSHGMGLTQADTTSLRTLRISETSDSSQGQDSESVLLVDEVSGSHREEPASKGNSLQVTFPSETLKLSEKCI
Described as above. As to the method: as §2

In a further series the target is T3, Human IP (Homo sapiens, UniProt P43119).
T3 construct: expressed in transfected cells; host or cells: COS-7
T3 sequence (P43119 whole entry): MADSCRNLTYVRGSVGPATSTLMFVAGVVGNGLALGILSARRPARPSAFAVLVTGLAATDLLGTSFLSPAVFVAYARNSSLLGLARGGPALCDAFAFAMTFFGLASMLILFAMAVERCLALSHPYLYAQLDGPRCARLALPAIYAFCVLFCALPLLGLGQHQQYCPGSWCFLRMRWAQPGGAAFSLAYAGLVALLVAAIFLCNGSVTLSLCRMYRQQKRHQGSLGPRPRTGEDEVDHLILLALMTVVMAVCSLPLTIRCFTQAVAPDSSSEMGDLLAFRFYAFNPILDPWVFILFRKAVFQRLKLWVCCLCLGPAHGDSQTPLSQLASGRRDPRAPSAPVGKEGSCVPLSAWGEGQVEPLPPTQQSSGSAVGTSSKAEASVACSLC
As to the kind of experiment: Receptor affinity, tritium-labeled iloprost binding to membranes of transfected COS-7 cells. Conditions: COS-7 cell membranes. As to the method:
(§3) PG receptor affinity of compound F and compound J of the present invention was evaluated. Compound F used was one synthesized in Example 9, and compound J was prepared by separating and purifying the compound synthesized in Example 14 with a column (the same preparations were used in the following Examples). COS-7 cells were transfected with the genes of mouse EP4, human EP1-4 or human IP to overexpress the receptor and then the cell membranes were collected. As a labeled ligand, tritium-labeled PGE2 was used for EPs; tritium-labeled iloprost, for IP. The dissociation constant Kd value was obtained and inhibition constant Ki value of each test compound was determined in a conventional method. As a reference control, PGE2 was used for EPs; beraprost sodium (BPS), for IP.

For series [1], the system named is concanavalin A-induced hepatitis. The series is described as follows: Prophylactic effect on concanavalin A-induced hepatitis model in mice. In kind it is in vivo, BALB/c mice. Conditions: oral 1 hr before Con A, compound F 1 mg/10 mL/kg, prednisolone 5 mg/10 mL/kg, 20 hr after Con A. As to the method:
BALB/c mice (female, 7 weeks old, Japan SLC) were purchased, acclimated for 1 week and used for the study. Except the no-induction group, Con A (type IV, Sigma-Aldrich) dissolved in saline was administered from the tail vein of the mice at a dose of 12.5 mg/10 mL/kg to induce hepatitis. Twenty hr later, the mice were subjected to laparotomy under ether anesthesia. A 0.5 mL of blood sample was collected from the caudal vena cava and heparinized plasma was obtained to measure plasma ALT and AST activities. Test substances were compound F (1 mg/10 mL solution), prednisolone (Nacalai Tesque, 5 mg/10 mL suspension (with 0.5 w/v% methylcellulose)) and water for injection (administered to the control group), which were orally administered at a volume of 10 mL/kg 1 hr before Con A injection. Seven to 9 animals were used for each group. After logarithmic transformation of the data, one-way analysis of variance was performed for statistical evaluation.

The target in the next series is T4, Human EP1 (Homo sapiens, UniProt P34995).
T4 construct: expressed in transfected cells; host or cells: COS-7
T4 sequence (P34995 1-402): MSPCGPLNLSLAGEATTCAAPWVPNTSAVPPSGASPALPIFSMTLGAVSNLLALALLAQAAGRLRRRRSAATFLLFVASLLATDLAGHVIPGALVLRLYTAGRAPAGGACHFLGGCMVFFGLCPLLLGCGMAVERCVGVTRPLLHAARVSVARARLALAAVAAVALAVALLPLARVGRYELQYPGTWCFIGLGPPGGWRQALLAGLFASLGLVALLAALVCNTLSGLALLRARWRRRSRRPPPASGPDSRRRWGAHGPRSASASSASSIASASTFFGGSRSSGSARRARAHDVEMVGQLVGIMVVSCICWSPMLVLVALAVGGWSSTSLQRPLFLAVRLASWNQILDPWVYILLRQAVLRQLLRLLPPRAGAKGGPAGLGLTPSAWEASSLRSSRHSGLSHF
As to the kind of experiment: Receptor affinity, tritium-labeled PGE2 binding to membranes of transfected COS-7 cells. As to the method: as §3

The subject of series [2] is ethanol-induced gastric mucosal injury. The series is described as follows: Ethanol-induced gastric mucosal injury model in rats. In kind it is in vivo, SD rats. As to the method:
Male SD rats (7 weeks old, Charles River) were purchased through Oriental BioService Inc., acclimated for 1 week and used for the study. The rats were grouped based on the body weight, placed in a clean cage set with a wire mesh floor one day before the study, fasted for 19 hr (without water for last 3 hr), and orally administered with ethanol (special grade, Nacalai Tesque, Lot No. V8A5862, 1.5 mL) in all groups to induce gastric mucosal injury. Compound F was orally administered at doses of 0.01, 0.1 and 1 mg/kg 30 min before induction of gastric mucosal injury at a volume of 5 mL/kg. To the control group was orally administered a solvent (1 vol% ethanol solution) at 5 mL/kg in the same manner. Eight animals were used for each group.
The rats were bled to death from the abdominal aorta and caudal vena cava under ether anesthesia after 1 hr from the ethanol administration, and the stomach was isolated. The isolated stomach was immediately filled with 2 vol% neutral formalin solution (6 mL) and fixed for 15 min. The stomach was incised along the midline of the greater curvature from the cardiac part to the pyloric part, and extended on a vinyl chloride board. The length and width of each ulcer were measured under a stereomicroscope, the area was calculated, and the sum thereof was taken as the total ulcer area.

`Cc1cccc([C@@H](C)[C@H](O)/C=C/[C@@H]2[C@@H]3[C@H](C[C@H]2O)O/C(=C\CCCc2nnn[nH]2)C3(F)F)c1` [Compound F, 4-[(Z)-(1S,5R,6R,7R)-6-[(1E,3R,4R)-3-hydroxy-4-(m-tolyl)-1-pentenyl]-7-hydroxy-2-oxa-4,4-difluoro-bicyclo[3.3.0]octan-3-ylidene]-1-(tetrazol-5-yl)butane]: the IC50 (as a rule, the concentration that inhibits the measured activity by half) in the series on IL-2 is 0.509 nM; in the series on TNF-α it was 1.25 nM; with IP-10, 1.14 nM. Moreover, the “local irritant effect on the eye” value with eye is “conjunctival edema and eye closure were observed 1 hr after the instillation in some animals”. Besides, the Ki (usually the equilibrium dissociation constant of an inhibitor or competing ligand from its target) on Human EP2 came out at 570 nM; on Mouse EP4, 68 nM; at Human IP, 670 nM; at Human EP1, 610 nM. Also, the “effect on increase of plasma ALT activity” value in series [1] was “significantly and strongly suppressed the increase”. Further, the “effect on increase of plasma AST activity” value in series [1] was “significantly and strongly suppressed the increase”. The “effect on total ulcer area (stomach)” value was “almost completely reduced the area” in [2] (oral 1 mg/kg 30 min before ethanol); “significantly reduced the total ulcer area in a dose-dependent manner from 0.01 mg/kg” in series [2] (oral 0.01, 0.1 and 1 mg/kg 30 min before ethanol).
